Assay results taken from PMC11503492, “Activity-Based DNA-Encoded Library Screening for Selective Inhibitors of Eukaryotic Translation” (ACS Central Science, 2024).

Tested on: MST1[1:39]-GFP translation
Assay: WG IVTT activity assay, MST1[1:39]-GFP template
Format: biochemical, wheat germ
Settings: WG IVTT dose-response
Experimental: page 21: 421 region sequences were matched to an alpha numeric DNA region identifier (11[…], respectively), while allowing a 1-bp mutation per encoding region. 423 No insertions or deletions were tolerated. […] A sum of UMI counts for all remaining unique combinations 429 of encoding region identifiers was then determined using a UMI aggregation algorithm; 430 1 bp mutations were considered the same UMI. Encoding region identifiers were then 431 converted to library BB identifiers per the library design with an associated UMI count. 432 Any encoding region/ bead-specific barcode combinations with a UMI count below a 433 manually determined threshold (10) were discarded. The remaining ”valid beads” were 434 aggregated by cycle 1/2 BB combinations and the number of unique encoding regions 435 observed for each BB combination defined the k-class for that BB combination.S8 436 Microplate IVTT Assays 437 Wheat germ lysate IVTT plate assays were prepared as 5 μL reactions. […] Template (1 μL) was added and reaction 440 progress was immediately monitored (λex = 480 nm, λem = 530 nm, 27 °C, 2 h). […] activity was calculated using the slope of fluorescence increase over time (at 15-30 442 min post reaction initiation) for compound samples relative to that of the DMSO vehicle 443 control. […]

Cc1cccc2ccnc(N(C(=O)[C@H]3CCCN(C(=O)c4cccc5c(C#N)c[nH]c45)C3)[C@@H]3CCCNC3)c12 [Compound 8]
activity on MST1[1:39]-GFP translation (in words): inactive
